Source: USRE39616E1, “Aminoindan derivatives” (priority 1996, dated 2007)
Structures can show the parent of a compound that is named as a salt. Where two headings read alike, the source gives them in different places.

How the values were obtained:
[1] = target: T1, MAO-A (Mus musculus, UniProt Q64133); assay: Inhibition of MAO activity ex vivo (brain); format: in vivo, mice; details: mice, brain tissue
T1 construct: from tissue; host or cells: mouse brain
T1 sequence (Q64133 1-526): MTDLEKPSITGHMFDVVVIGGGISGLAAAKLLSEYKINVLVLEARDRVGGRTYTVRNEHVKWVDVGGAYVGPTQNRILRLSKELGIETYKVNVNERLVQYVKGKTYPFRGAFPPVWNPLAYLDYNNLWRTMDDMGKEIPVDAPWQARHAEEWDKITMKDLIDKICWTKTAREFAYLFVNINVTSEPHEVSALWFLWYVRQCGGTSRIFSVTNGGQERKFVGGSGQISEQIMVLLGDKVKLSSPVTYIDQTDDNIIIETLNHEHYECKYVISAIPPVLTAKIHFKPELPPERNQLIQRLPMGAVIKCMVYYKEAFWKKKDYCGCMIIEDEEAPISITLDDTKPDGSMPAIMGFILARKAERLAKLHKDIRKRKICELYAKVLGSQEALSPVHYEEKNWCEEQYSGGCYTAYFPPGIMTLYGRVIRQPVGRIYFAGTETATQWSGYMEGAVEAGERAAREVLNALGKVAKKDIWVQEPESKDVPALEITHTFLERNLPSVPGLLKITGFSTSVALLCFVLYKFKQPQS
Experimental: (§1) Substrate concentrations used were 50 μM (PEA) and 1 mM (5-HT).
(§2) Male Sabra mice, weighing 45-50 g were injected with test compound solutions (prepared in 0.9% saline). Each dose was administered to two or three mice. The mice were sacrificed two hours after drug administration or at a time corresponding to the peak AChE inhibition time (see Table 11). The brain and liver were rapidly dissected and stored in appropriate vials on ice. The tissues were weighed, diluted to ½ in sucrose 0.3M and stored at −20° C. before performance of the MAO assay described above. The results given in Table 11 relate to measurements made on brain tissue only.

[2] = target: T2, MAO-B (Mus musculus, UniProt Q8BW75); assay: Inhibition of MAO activity ex vivo (brain); format: in vivo, mice; details: mice, brain tissue
T2 construct: from tissue; host or cells: mouse brain
T2 sequence (Q8BW75 1-520): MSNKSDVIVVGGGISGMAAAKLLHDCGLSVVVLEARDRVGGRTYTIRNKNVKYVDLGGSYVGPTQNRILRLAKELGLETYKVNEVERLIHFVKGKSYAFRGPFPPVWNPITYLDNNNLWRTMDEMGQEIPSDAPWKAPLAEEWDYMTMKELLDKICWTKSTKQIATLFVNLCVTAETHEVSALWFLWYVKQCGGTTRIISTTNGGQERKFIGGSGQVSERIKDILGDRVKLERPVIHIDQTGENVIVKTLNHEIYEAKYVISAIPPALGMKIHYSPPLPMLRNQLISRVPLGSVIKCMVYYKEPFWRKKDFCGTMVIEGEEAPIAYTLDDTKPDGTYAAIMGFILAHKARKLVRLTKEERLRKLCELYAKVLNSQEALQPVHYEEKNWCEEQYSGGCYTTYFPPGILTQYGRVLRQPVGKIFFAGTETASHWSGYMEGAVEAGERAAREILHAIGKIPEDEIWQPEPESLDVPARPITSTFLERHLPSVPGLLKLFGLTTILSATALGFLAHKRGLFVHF
Experimental: as §1, §2

[3] = target: T3, whole brain AChE (Mus musculus, UniProt P21836); details: for AChE Inhibition Ex vivo ED50 (AC): mice, whole brain, at peak of activity; for AChE Inhibition Time to peak activity t / AChE Inhibition Time to return to 50% of peak t: mouse, in vivo
T3 sequence (P21836 32-614): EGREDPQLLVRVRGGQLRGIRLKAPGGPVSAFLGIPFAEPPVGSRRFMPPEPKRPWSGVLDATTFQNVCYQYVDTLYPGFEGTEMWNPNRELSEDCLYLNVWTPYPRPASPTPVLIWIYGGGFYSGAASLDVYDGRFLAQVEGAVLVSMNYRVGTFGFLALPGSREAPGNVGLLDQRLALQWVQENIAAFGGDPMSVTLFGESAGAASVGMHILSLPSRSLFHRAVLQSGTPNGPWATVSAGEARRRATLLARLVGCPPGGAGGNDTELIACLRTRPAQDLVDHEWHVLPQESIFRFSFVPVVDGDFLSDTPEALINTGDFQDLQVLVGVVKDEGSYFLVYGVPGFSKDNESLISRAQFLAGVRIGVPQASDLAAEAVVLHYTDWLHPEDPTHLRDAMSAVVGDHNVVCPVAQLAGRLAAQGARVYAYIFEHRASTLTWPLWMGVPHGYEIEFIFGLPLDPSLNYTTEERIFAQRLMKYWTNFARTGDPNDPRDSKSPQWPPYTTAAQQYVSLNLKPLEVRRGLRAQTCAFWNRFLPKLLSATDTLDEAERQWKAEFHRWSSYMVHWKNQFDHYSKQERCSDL
Experimental: Test drugs or saline were administered sub-cutaneously to male mice (Sabra strain, 28-35 g). […] The mice were sacrificed 15, 30, 50, 70, 90, 120 or 180 minutes after drug administration, the brains rapidly removed (minus cerebellum), weighed and homogenized in 0.1 M phosphate buffer, pH 8.0, containing Triton (1 mg/100 g tissue) and centrifuged to remove cell debris. Aliquots (25 μl) of the supernatant were then incubated with acetylthiocholine and DTNB. AChE activity was measured as described above. The % inhibition of whole brain AChE by each dose of drug was calculated by comparison with enzyme activity from 3 saline treated control mice run at the same time.

[4] = target: T4, Human erythrocyte acetylcholinesterase (Homo sapiens, UniProt P22303); assay: biochemical; format: biochemical
T4 construct: Human erythrocyte acetylcholinesterase (type XIII, Sigma Israel); purchased Sigma Israel type XIII; host or cells: human erythrocytes
Experimental: Human erythrocyte acetylcholinesterase (type XIII, Sigma Israel), was prepared in a stock solution of 1 U/ml, containing Triton (1%) and bovine serum albumin (0.05%) in phosphate buffer (pH 8). The enzyme (0.05U) was incubated with 3-5 different concentrations of test compound (in triplicate) for periods of from 15 to 60 minutes at 37° C. […] The percentage inhibition of AChE by each concentration of drug is calculated by comparison with that of enzyme in the absence of drug.

[5] = tested on: mice; details: mice, within 6 hours after administration
Experimental: Therapeutic Ratio was calculated as LD50 divided by ED50 of ex vivo acetylcholine esterase inhibition.

[6] = tested on: mice, hypobaric hypoxic model; assay: animal or person; format: in vivo; details: for response vs control in vivo at 0.2 mg/kg: 0.2 mg/kg sc
From the text: A 12 liter desiccator (desiccator A) and a 2.5 liter desiccator (desiccator B) were separately connected to a vacuum pump. Desiccator B was disconnected and allowed to equilibrate with room air whilst desiccator A was evacuated to a pressure of 100 mmHg. Four male ICR albino mice (22-28 g) were placed in desiccator B. Desiccator B was then closed to room air and connected to desiccator A. The pressure inside desiccator B was monitored using a mercury manometer and at the point were the pressure in desiccator B reached 200 mmpg (usually within 14 seconds), the two desiccators were disconnected from the vacuum pump and the pump switched off. The survival time from the moment of induction of hypoxia to the time of cessation of respiration was recorded for each mouse for a maximum of 15 minutes after which time room air was reintroduced to desiccator B. Survivors were monitored for signs of lethargy or vitality.
Effect of drug treatment was assessed as the percent of the survival time of the drug treated group with respect to the saline injected or vehicle injected control group. […] The effect of each dose of test drug was determined in duplicate i.e. two groups of 4 mice.
Positive reference drugs were sodium pentobarbital at a dose of 40 mg/kg, and diazepam 10 mg/kg given 0.5 h prior to hypoxia, physostigmine 0.2 and 0.4 mg/kg and neostigmine 0.2 mg/kg given sc 30 min before hypoxia. Methyl atropine 1 mg/kg was given sc. 10 min. before physostigmine.
Test drugs were dissolved in 0.9% saline, and injected sc. in the nip of the neck at a dose in accordance with body weight, 60-90 min. before hypoxia. The volume of injection was 0.2-0.3 mL per mouse (10 mL/kg). The initial dose was about one third of the reported LD50 for acetylcholine esterase inhibition. If no protection could be obtained, the dose was further increased to the nearest non-toxic dose. In case of protection, the dose was further reduced in an attempt to locate the “protective” dose range.

[7] = target: T5, MAO-A (Rattus norvegicus, UniProt P21396); assay: Inhibition of MAO activity in vitro, 5-HT as substrate; format: biochemical; set-up: The MAO enzyme source was a homogenate of rat brain in 0.3M sucrose; from tissue; host or cells: rat brain homogenate, 600 g supernatant; details: 5-HT substrate
T5 sequence (P21396 1-526): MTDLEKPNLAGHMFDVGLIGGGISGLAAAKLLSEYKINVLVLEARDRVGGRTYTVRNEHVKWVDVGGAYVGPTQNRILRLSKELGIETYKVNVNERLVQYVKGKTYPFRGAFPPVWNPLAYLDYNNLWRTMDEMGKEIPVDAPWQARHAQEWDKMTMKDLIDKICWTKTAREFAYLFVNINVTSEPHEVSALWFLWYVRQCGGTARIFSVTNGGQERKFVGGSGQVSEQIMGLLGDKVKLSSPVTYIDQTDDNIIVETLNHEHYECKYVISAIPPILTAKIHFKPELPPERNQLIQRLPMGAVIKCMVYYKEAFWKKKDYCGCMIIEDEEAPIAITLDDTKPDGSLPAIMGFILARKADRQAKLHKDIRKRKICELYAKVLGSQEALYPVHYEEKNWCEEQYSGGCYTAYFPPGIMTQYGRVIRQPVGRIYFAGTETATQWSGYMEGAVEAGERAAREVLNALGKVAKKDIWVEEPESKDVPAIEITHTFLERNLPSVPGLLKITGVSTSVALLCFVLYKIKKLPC
Experimental: as §1

[8] = human erythrocyte AChE, at time of peak activity, read-out: AChE Inhibition In vitro IC50
[9] = read-out: AChE Inhibition In vitro IC50
[10] = Mus musculus, 30 min before hypoxia, read-out: Protection (survival time)

T4 sequence (P22303 32-617 isoform P22303-2 limits assumed): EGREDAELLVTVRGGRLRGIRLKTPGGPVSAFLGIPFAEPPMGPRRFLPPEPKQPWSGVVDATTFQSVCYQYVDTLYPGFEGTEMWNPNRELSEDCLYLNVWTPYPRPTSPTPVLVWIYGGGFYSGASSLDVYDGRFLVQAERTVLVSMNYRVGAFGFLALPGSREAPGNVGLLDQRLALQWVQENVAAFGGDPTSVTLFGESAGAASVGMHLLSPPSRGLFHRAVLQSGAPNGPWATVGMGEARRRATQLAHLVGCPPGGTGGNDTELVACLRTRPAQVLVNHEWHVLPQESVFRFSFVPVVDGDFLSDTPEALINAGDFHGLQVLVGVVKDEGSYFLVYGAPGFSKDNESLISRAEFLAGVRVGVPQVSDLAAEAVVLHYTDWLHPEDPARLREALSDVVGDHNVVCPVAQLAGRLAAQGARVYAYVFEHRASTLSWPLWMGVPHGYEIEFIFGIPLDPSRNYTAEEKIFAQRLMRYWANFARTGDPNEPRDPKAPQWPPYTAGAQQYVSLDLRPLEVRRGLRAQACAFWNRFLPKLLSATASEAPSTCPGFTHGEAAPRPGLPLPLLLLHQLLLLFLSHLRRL

Compound: C#CCNC1CCc2ccc(OC(=O)N(C)C)cc21 (single isomer, unassigned) [Compound 54]
- MAO-A Inhibition Ex vivo ED50 [1]: >100 µmol/kg
- MAO-B Inhibition Ex vivo ED50 [2]: >100 µmol/kg

Compound: C#CCNC1CCc2ccc(OC(=O)NCC)cc21 (stereo not drawn) [Compound 56]
- AChE Inhibition Ex vivo ED50 (AC) [3]: 180 µmol/kg
- IC50 [4, 8]: 11.5 µM

Compound: CN(C(=O)Oc1ccc2c(c1)C(N)CC2)C1CCCCC1 (stereo not drawn) [Compound 17]
- IC50 [4, 9]: 4 µM

Compound: C#CCNC1CCc2cccc(OC(=O)N(C)CCC)c21 (stereo not drawn) [Compound 28]
- IC50 [4, 8]: 100 µM

Compound: C#CCNC1CCc2cccc(OC(=O)N(C)CC)c21 (stereo not drawn) [Compound 33]
- IC50 ([4]; AChE Inhibition In vitro IC50): 540 µM
- MAO-A Inhibition Ex vivo ED50 [1]: >>1200 μmoles/kg
- MAO-B Inhibition Ex vivo ED50 [2]: 1000 µmol/kg

Compound: CNC1CCc2cccc(OC(=O)N(C)C)c21 (stereo not drawn) [Compound 9]
- Acute Toxicity LD50 (LD) [5]: 93 µmol/kg
- AChE Inhibition Ex vivo ED50 (AC) [3]: 19 µmol/kg
- AChE Inhibition Time to peak activity t [3]: 15 min

Compound: C#CCNC1CCc2ccc(OC(=O)N(C)CC)cc21 (stereo not drawn) [Compound 60]
- IC50 ([4]; AChE Inhibition In vitro IC50): 42 µM

Compound: CCN(C)C(=O)Oc1cccc2c1C(N)CC2 (stereo not drawn) [Compound 5]
- Acute Toxicity LD50 (LD) [5]: 840 µmol/kg
- AChE Inhibition Ex vivo ED50 (AC) [3]: 85.0 µmol/kg
- AChE Inhibition Time to peak activity t [3]: 60 min
- AChE Inhibition Time to return to 50% of peak t [3]: >120 min
- MAO-A Inhibition Ex vivo ED50 [1]: >>277 μmoles/kg
- MAO-B Inhibition Ex vivo ED50 [2]: >>277 μmoles/kg

Compound: C#CCNC1CCc2ccc(OC(=O)N(C)CCCC)cc21 (stereo not drawn) [Compound 86]
- IC50 [4, 9]: 10.5 µM

Compound: C#CCNC1CCc2ccc(OC(=O)N(CC)CCCC)cc21 (stereo not drawn) [Compound 83]
- IC50 [4, 8]: 80 µM

Compound: C#CCN(C)C1CCc2ccc(OC(=O)N(C)CC)cc21 (stereo not drawn) [Compound 30]
- IC50 [4, 9]: 1300 µM

Compound: C#CCNC1CCc2ccc(OC(=O)N(C)C)cc21 (single isomer, unassigned) [Compound 55]
- MAO-A Inhibition Ex vivo ED50 [1]: >100 µmol/kg
- MAO-B Inhibition Ex vivo ED50 [2]: >100 µmol/kg

Compound: CCCC(C)C1(CC)C(=O)N=C([O-])NC1=O.[Na+] (stereo not drawn) [Nembutal]
- Protection (survival time) ([6]; 40 mg/kg, 30 min before hypoxia): 253 ± 200 % of control

Compound: C#CCNC1CCc2ccc(OC(=O)N(CC)C3CCCCC3)cc21 (stereo not drawn) [Compound 85]
- AChE Inhibition Ex vivo ED50 (AC) [3]: >100 µmol/kg
- IC50 [4, 8]: 17 µM

Compound: CN(C)C(=O)Oc1ccc2c(c1)C(N(C)C)CC2 (stereo not drawn) [Compound 12]
- Acute Toxicity LD50 (LD) [5]: <20 µmol/kg
- AChE Inhibition Ex vivo ED50 (AC) [3]: 8.0 µmol/kg
- AChE Inhibition Time to peak activity t [3]: 15 min
- response vs control in vivo at 7 mg/kg ([6]; Mus musculus, sc, read-out: Protection (survival time), 7 mg/kg sc, 60 min before hypoxia): 248 ± 97%
- response vs control in vivo at 10 mg/kg ([6]; Mus musculus, sc, read-out: Protection (survival time), 10 mg/kg sc, 60 min before hypoxia): 386 ± 238%
- response vs control in vivo at 15 mg/kg ([6]; Mus musculus, sc, read-out: Protection (survival time), 15 mg/kg sc, 60 min before hypoxia): 649 ± 221%
- response vs control in vivo at 20 mg/kg ([6]; Mus musculus, sc, read-out: Protection (survival time), 20 mg/kg sc, 60 min before hypoxia): 725 ± 128%

Compound: CCN(C)C(=O)Oc1ccc2c(c1)C(N)CC2 (stereo not drawn) [Compound 3, 6-(N-Me,N-Et Carbamyloxy) aminoindan HCl]
- Acute Toxicity LD50 (LD) [5]: 950 µmol/kg
- AChE Inhibition Ex vivo ED50 (AC) [3]: 46.3 µmol/kg
- AChE Inhibition Time to peak activity t [3]: 60 to 90 min
- AChE Inhibition Time to return to 50% of peak t [3]: >180 min
- IC50 ([7]; MAO-A Inhibition In vitro IC50, rat brain homogenate): 12.6 µM

Compound: CNC(=O)Oc1ccc2c(c1)[C@]1(C)CCN(C)[C@@H]1N2C [physostigmine, reference compound]
- response vs control in vivo at 0.2 mg/kg [6, 10]: 453 ± 222%
- response vs control in vivo at 0.4 mg/kg ([6]; Mus musculus, 0.4 mg/kg sc, 30 min before hypoxia, read-out: Protection (survival time)): 552 ± 210%

Compound: CCCN(C)C(=O)Oc1ccc2c(c1)C(N)CC2 (stereo not drawn) [Compound 2]
- IC50 ([7]; rat brain homogenate, read-out: MAO-A Inhibition In vitro IC50): 32 µM
- IC50 [4, 9]: 7.3 µM

Compound: CN(C)C(=O)Oc1cccc([N+](C)(C)C)c1 [neostigmine, reference compound]
- response vs control in vivo at 0.2 mg/kg [6, 10]: 141 ± 32%

Compound: C#CCNC1CCc2ccc(OC(=O)N(C)CCCC)cc21 (stereo not drawn) [Compound 87]
- IC50 [4, 9]: 9.1 µM
